Read-outs that look alike come from different tables or passages of the source.
Columns and labels:
[1] = tested on: FOPFlash luciferase (reporter with eight mutant Tcf binding sites); type: cell-based, human
Protocol: (§1) FuGENE 6 (E2962, Promega) in a 96-well plate format was used for the transfection of HEK293 and SW480 cells according to the manufacturer's instructions. […] SW480 cells were co-transfected with 60 ng of the TOPFlash or FOPFlash reporter gene and 40 ng pCMV-RL normalization reporter. Cells were cultured in DMEM and 10% fatal bovine serum at 37° C. for 24 h, and different concentrations of inhibitors were then added. After 24 h, the luciferase reporter activity was measured using the Dual-Glo system (E2940, Promega). Normalized luciferase activity in response to the treatment with the inhibitors was compared with that obtained from the cells treated with DMSO. Experiments were performed in triplicate.

β-catenin/Tcf4 PPI [2] = target: T1, β-catenin/Tcf4 PPI (Homo sapiens, UniProt P35222); conditions: for inhibitory potency for the β-catenin/Tcf PPI in the biochemical assays: result in words, FP and AlphaScreen
T1 sequence (P35222 138-686): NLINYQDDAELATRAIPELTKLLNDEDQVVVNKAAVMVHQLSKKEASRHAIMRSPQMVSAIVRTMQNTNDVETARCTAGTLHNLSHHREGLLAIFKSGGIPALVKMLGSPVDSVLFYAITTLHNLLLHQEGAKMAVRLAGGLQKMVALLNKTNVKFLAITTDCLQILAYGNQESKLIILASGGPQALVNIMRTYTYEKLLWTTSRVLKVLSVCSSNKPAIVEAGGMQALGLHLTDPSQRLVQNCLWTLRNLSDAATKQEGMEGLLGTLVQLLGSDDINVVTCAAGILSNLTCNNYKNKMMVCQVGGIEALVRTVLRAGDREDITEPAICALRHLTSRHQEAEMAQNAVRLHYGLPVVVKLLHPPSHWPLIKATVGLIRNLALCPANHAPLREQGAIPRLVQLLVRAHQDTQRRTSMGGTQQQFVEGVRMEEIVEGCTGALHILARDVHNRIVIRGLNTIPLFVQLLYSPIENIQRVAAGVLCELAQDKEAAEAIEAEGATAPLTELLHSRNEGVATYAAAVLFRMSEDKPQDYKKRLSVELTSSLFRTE
From the text: (§3) After β-catenin and fluorescein-Tcf4 form a protein-protein complex, the fluorophore is attached to a high-molecular-weight protein complex (≥60 kDa) and has a low rotational speed when it is excited by plane-polarized light. […] When an inhibitor completely disrupts the β-catenin/fluorescein-Tcf4 PPI, the fluorophore is only attached to Tcf4 (≤6 kDa), and the emitted light after excitation will be largely depolarized due to a high rotational speed of the fluorophore. AlphaScreen is a bead-based assay. […] On laser excitation at 680 nm, the photo sensitizers inside the donor beads convert ambient oxygen to a singlet oxygen state. Only when the donor and acceptor beads are brought within 200 nm can the singlet oxygen molecules diffuse to the acceptor beads, resulting in extensive emission at 570 nm.

β-catenin/Tcf4 PPI [3] = target: T1, β-catenin/Tcf4 PPI
From the text: as §3

[4] = tested on: canonical Wnt signaling in pcDNA3.1-β-catenin transfected HEK293 cells; assay: TOPFlash luciferase reporter assay, HEK293; type: cell-based, human; conditions: for TOPFlash luciferase activity / transactivation of canonical Wnt signaling: result in words, Wnt-activated HEK293
Protocol: as §1

SW480 cells = assay: MTs cell viability assay, SW480; type: cell-based, human; conditions: for IC50: Homo sapiens, SW480, MTs cell viability, 72 h, read-out: IC50 ± SD SW480; for growth of SW480 cells: result in words, MTs
Protocol: (§2) Colorectal cancer cell lines, SW480, HT29, an HCT116, and human normal cell line HEK293 were seeded in 96-well plates at 4×10^3 cells/well, maintained overnight at 37° C., and incubated with the tested compounds at various concentrations. Cell viability was monitored after 72 h using a freshly prepared mixture of 1 part phenazine methosulfate (PMS, Sigma) solution (0.92 mg/mL) and 19 parts 3-(4,5-dimethylthiazol-2-yl)-5-(3-carboxymethoxyphenyl)-2-(4-sulfophenyl)-2H-tetrazolium (MTs, Promega) solution (2 mg/mL). Cells were incubated in 10 μL of this solution at 37° C. for 3 h, and A490 was measured. […] Experiments were performed in triplicate.

[5] = tested on: Wnt/β-catenin target genes in SW480 cells
Protocol: Total RNAs were extracted with TRIzol (Ser. […] The threshold cycle (CT) values were normalized to that of internal reference GAPDH. The primer pairs for human GAPDH were forward: [NT] and reverse: [NT]; for human HPRT forward: [NT] and reverse: [NT]; for human AXIN2 forward: [NT] and reverse: [NT]; for human c-myc forward: [NT] and reverse: [NT]; and for human cyclin D1 forward: [NT] and reverse: [NT]. Experiments were performed in triplicate.

HCT116 cells = assay: MTs cell viability assay, HCT116; type: cell-based, human; conditions: for IC50: Homo sapiens, HCT-116, MTs cell viability, 72 h, read-out: IC50 ± SD HCT116; for growth of HCT116 cells: result in words, MTs
Protocol: as §2

HT29 cells = assay: MTs cell viability assay, HT29; type: cell-based; conditions: Homo sapiens, HT-29, 72 h, read-out: IC50 ± SD HT29
Protocol: as §2

β-catenin/Tcf4 = target: T2, β-catenin/Tcf4 (Homo sapiens, UniProt P35222); conditions: FP selectivity assay, known inhibitors, footnotes a, b; read-out: Ki ± SD β-catenin/Tcf4; cited from earlier work
T2 sequence (P35222 138-686): T1 sequence (P35222 138-686)

β-catenin/APC-R3 = target: T3, β-catenin/APC-R3 (Homo sapiens, UniProt P35222); conditions: FP selectivity assay, known inhibitors, footnotes a, b; read-out: Ki ± SD β-catenin/APC-R3; cited from earlier work
T3 construct: Wild-type β-catenin and its mutants (residues 138-686) were cloned; 6xHis; made in house; host or cells: E. coli BL21 DE3
T3 sequence (P35222 138-686): T1 sequence (P35222 138-686)

β-catenin/Tcf4 PPI [6] = target: T1, β-catenin/Tcf4 PPI; assay: biochemical
From the text: as §3

[7] = read-out: Ki ± SD FP, Table 8, resynthesized 18 and derivatives
[8] = read-out: Ki ± SD AlphaScreen, Table 8, resynthesized 18 and derivatives
[9] = read-out: FP Ki ± SD, Table 6, fragments of 18

Question: With CCc1ccc(-c2nc(CSCC(=O)NCCc3ccccc3)c(C)o2)cc1 [Compound 8, reference compound] as the compound, how does the “FOPFlash luciferase reporter activity” value ([1]; reference inhibitors) read?
Answer: The value was “inhibited”.

Question: For N#CCCCn1c2ccccc2c2nc3nonc3nc21 [Compound 36, 4-(5H-[1,2,5]Oxadiazolo[3′,4′:5,6]Pyrazino[2,3-B]Indol-5-yl)Butanenitrile], which Ki (β-catenin/Tcf4 PPI [2]; [7]) is on record?
Answer: Its Ki is 160 ± 8.9 µM.

Question: And the Ki (β-catenin/Tcf4 PPI [3]; [8])?
Answer: Its Ki is 120 ± 4.2 µM.

Question: Which results are given for Nc1nonc1C(=O)N1CCCC1 [Compound 23]?
Answer: Ki (β-catenin/Tcf4 PPI [2]; [9]): 1700 ± 28 µM; inhibitory potency for the β-catenin/Tcf PPI in the biochemical assays (β-catenin/Tcf4 PPI [2]): some inhibitory activities

Question: Which results are given for NC(=S)N/N=C1/c2ccccc2-c2nc3nonc3nc21 [Compound 21]?
Answer: Ki (β-catenin/Tcf4 PPI [2]; [9]): 240 ± 4.6 µM; inhibitory potency for the β-catenin/Tcf PPI in the biochemical assays (β-catenin/Tcf4 PPI [2]): some inhibitory activities

Question: For c1ccc2c(c1)c1nc3nonc3nc1n2CCc1nnn[nH]1 [Compound 37, 5-(2-(2H-Tetrazol-5-yl)Ethyl)-5H-[1,2,5]Oxadiazolo[3′,4′:5,6]Pyrazino[2,3-B]Indole], which “TOPFlash luciferase activity / transactivation of canonical Wnt signaling” value [4] is on record?
Answer: The value was “suppressed the TOPFlash luciferase activity in a dose-dependent manner”.

Question: What about the FOPFlash luciferase activity ([1]; even at 200 μM, pcDNA3.1-β-catenin transfected HEK293) of the same compound?
Answer: Its FOPFlash luciferase activity is “did not affect”.

Question: What about the IC50 (SW480 cells) of the same compound?
Answer: Its IC50 is 20 µM.

Question: What about the “expression of house-keeping gene HPRT” value ([5]; SW480) of the same compound?
Answer: Its value is “did not affect”.

Question: What about the “expression of AXIN2, cyclin D1, and c-myc (mRNA)” value ([5]; SW480, dose-dependent) of the same compound?
Answer: The value was “down-regulated”.

Question: Which Ki (β-catenin/Tcf4 PPI [2]; [9]) does the source give for O=C1c2ccccc2-c2nc3nonc3nc21 [Compound 19B, 9H-Indeno[1,2-B][1,2,5]Oxadiazolo[3,4-E]Pyrazin-9-One] here?
Answer: Its Ki is 310 ± 11 µM.

Question: What about the “inhibitory potency for the β-catenin/Tcf PPI in the biochemical assays” value (β-catenin/Tcf4 PPI [2]) of the same compound?
Answer: The value was “some inhibitory activities”.

Question: Which IC50 (SW480 cells) does the source give for COC1=C(C[C@H](C)O)C2c3c(c(O)cc4c3-c3c(cc(O)c5c3C2C(C[C@H](C)O)=C(OC)C5=O)OCO4)C1=O (stereo partly shown) [Compound 2] here?
Answer: The IC50 was 5.5 ± 1.3 µM.

Question: And the IC50 (HCT116 cells)?
Answer: Its IC50 is 1.2 ± 0.48 µM.

Question: What about the IC50 (HT29 cells) of the same compound?
Answer: The IC50 was 1.8 ± 0.13 µM.

Question: What about the Ki (β-catenin/Tcf4) of the same compound?
Answer: Its Ki is 150 ± 19 µM.

Question: What about the Ki (β-catenin/APC-R3) of the same compound?
Answer: The Ki was 130 ± 0.38 µM.

Question: Which IC50 ([4]; Homo sapiens, pcDNA3.1-β-catenin transfected HEK293, 24 h, read-out: TOPFlash IC50 ± SD Wnt-activated HEK293) does the source give for O=C(O)c1cc2nc(-c3ccc4c(c3)OCO4)c(-c3ccc4c(c3)OCO4)nc2cc1O [Compound 17] here?
Answer: Its IC50 is > 100 µM.

Question: And the IC50 (SW480 cells)?
Answer: The IC50 was 110 ± 21 µM.

Question: And the IC50 (HCT116 cells)?
Answer: The IC50 was 250 ± 21 µM.

Question: And the IC50 (HT29 cells)?
Answer: Its IC50 is 300 µM.

Question: What about the Ki (β-catenin/Tcf4 PPI [2]; read-out: Ki + SD FP, Table 3, purchased screening hits) of the same compound?
Answer: The Ki was 8.7 ± 1 µM.

Question: What about the Ki (β-catenin/Tcf4 PPI [3]; read-out: Ki + SD AlphaScreen, Table 3, purchased screening hits) of the same compound?
Answer: The Ki was 12 ± 0.78 µM.

Question: With O=C(O)c1cc(-c2ccc(Oc3ccc(Cl)cc3)cc2)on1 [Compound 16] as the compound, how does the IC50 (SW480 cells) read?
Answer: The IC50 was > 400 µM.

Question: And the IC50 (HCT116 cells)?
Answer: Its IC50 is > 400 µM.

Question: What about the IC50 (HT29 cells) of the same compound?
Answer: Its IC50 is 430 ± 25 µM.

Question: Which results are given for O=C(O)CCCn1c2ccccc2c2nc3nonc3nc21 [Compound 33, 4-(5H-[1,2,5]Oxadiazolo[3′,4′:5,6]Pyrazino[2,3-B]Indol-5-yl)Butanoic Acid]?
Answer: TOPFlash luciferase activity / transactivation of canonical Wnt signaling [4]: did not inhibit; growth of SW480 cells (SW480 cells): did not exhibit the inhibitory activities; growth of HCT116 cells (HCT116 cells): did not exhibit the inhibitory activities

Question: With Nc1nonc1C(=O)NCc1ccccc1 [Compound 25] as the compound, how does the Ki (β-catenin/Tcf4 PPI [2]; [9]) read?
Answer: Its Ki is 1700 ± 37 µM.

Question: What about the “inhibitory potency for the β-catenin/Tcf PPI in the biochemical assays” value (β-catenin/Tcf4 PPI [2]) of the same compound?
Answer: The value was “some inhibitory activities”.

Question: With N/N=C1/c2ccccc2-c2nc3nonc3nc21 [Compound 20, (Z)-9-Hydrazono-9H-Indeno[1,2-B][1,2,5]Oxadiazolo[3,4-E]Pyrazine] as the compound, how does the Ki (β-catenin/Tcf4 PPI [2]; [9]) read?
Answer: The Ki was 230 ± 6.2 µM.

Question: With NC(=O)c1nonc1N [Compound 22] as the compound, how does the Ki (β-catenin/Tcf4 PPI [6]) read?
Answer: The Ki was > 2000 µM.

Question: Which results are given for CCOC(=O)CCCn1c2ccccc2c2nc3nonc3nc21 [Compound 32, Ethyl 4-(5H-[1,2,5]Oxadiazolo[3′,4′:5,6]Pyrazino[2,3-B]Indol-5-yl)Butanoate]?
Answer: growth of SW480 cells (SW480 cells): did not exhibit the inhibitory activities; growth of HCT116 cells (HCT116 cells): did not exhibit the inhibitory activities

Question: For CC(C)CNC(=O)c1nonc1N [Compound 24], which Ki (β-catenin/Tcf4 PPI [6]) is on record?
Answer: The Ki was > 2000 µM.

Question: Which “TOPFlash luciferase activity / transactivation of canonical Wnt signaling” value [4] does the source give for Nc1nonc1NC(=O)Cn1c2ccccc2c2nc3nonc3nc21 [Compound 26, 2-(5H-[1,2,5]Oxadiazolo[3′,4′:5,6]Pyrazino[2,3-B]Indol-5-yl)-N-(4-Amino-1,2,5-Oxadiazol-3-yl)Acetamide] here?
Answer: The value was “did not inhibit”.

Question: What about the “growth of SW480 cells” value (SW480 cells) of the same compound?
Answer: Its value is “did not exhibit the inhibitory activities”.

Question: What about the “growth of HCT116 cells” value (HCT116 cells) of the same compound?
Answer: Its value is “did not exhibit the inhibitory activities”.

Question: Which Ki (β-catenin/Tcf4 PPI [2]; [7]) does the source give for c1ccc2c(c1)[nH]c1nc3nonc3nc12 [Compound 27, 5H-[1,2,5]Oxadiazolo[3′,4′:5,6]Pyrazino[2,3-B]Indole] here?
Answer: The Ki was 280 ± 12 µM.

Question: What about the “inhibitory potency for the β-catenin/Tcf PPI in the biochemical assays” value (β-catenin/Tcf4 PPI [2]) of the same compound?
Answer: The value was “poor inhibitory potency”.

Question: What about the Ki (β-catenin/Tcf4 PPI [3]; [8]) of the same compound?
Answer: The Ki was 120 ± 8.7 µM.

Question: What does the source list for COC(=O)CCn1c2ccccc2c2nc3nonc3nc21 [Compound 30, Methyl 3-(5H-[1,2,5]Oxadiazolo[3′,4′:5,6]Pyrazino[2,3-B]Indol-5-yl)Propanoate]?
Answer: growth of SW480 cells (SW480 cells): did not exhibit the inhibitory activities; growth of HCT116 cells (HCT116 cells): did not exhibit the inhibitory activities

Question: Which IC50 (SW480 cells) does the source give for O=C(O)c1ccc2nc(-c3ccc(Cl)cc3)c(-c3ccc(Cl)cc3)nc2c1 [Compound 15] here?
Answer: The IC50 was 38 ± 1.1 µM.

Question: And the IC50 (HCT116 cells)?
Answer: The IC50 was 22 ± 5.9 µM.

Question: What about the IC50 (HT29 cells) of the same compound?
Answer: Its IC50 is 41 ± 1 µM.

Reference: patent US10273246B2, “Methods and compositions of substituted 5H-[1,2,5] oxadiazolo [3′,4′:5,6] pyrazino[2,3-B] indole analogs as inhibitors of β-catenin/T-cell factor protein-protein interactions” (University of Utah Research Foundation, priority 2015, dated 2019)
